Data on 1 molecule can be found in US20140309295A1, “ANTIEPILEPTIC, HYPOCHOLESTEROLEMIC AND NEUROPROTECTIVE COMPOUND” (NEURON BIOPHARMA, S.A., priority 2009, published 2014).

One data set deals with ApoB100 mice. Nature of the data set: Hypocholesterolemic effect, oral three months, endogenous hyperlipidemia model. Format: in vivo. The following applies: 50 mg/kg oral, 3 months. Here is the method:
All the animals included for the experimental process were 6-month old female mice. The experiments were conducted strictly following the Guidance on the Operation of Animals (Scientific Procedures, Act. 1986). The animals had their respective quarantine period and were treated with maximum precaution to minimize possible contaminations for inoculations and handling.
After a conditioning to the diet, 50 mg/kg of NST0021 or NST0037 were orally administered to the mice for 3 months, three times a week, using in both cases 0.25% carboxy methylcellulose in physiological saline as a vehicle. The control group received this same vehicle. Before starting the treatments and at one, two and three months of starting them, retro-orbital blood extractions after fasting for 16 hours were carried out. The plasma was obtained from said blood, in which the total cholesterol (TC), free cholesterol (FC), cholesterol (EC), HDL-c, LDL-c, VLDL-c levels were evaluated by enzymatic and spectrophotometric techniques.

The test system of a further data set is zebrafish embryo. Nature of the data set: Biosafety in zebrafish embryo (OECD C15, semi-static, 9 days). Format: in vivo, Danio rerio. Here is the method: The fertilized eggs were obtained by natural mating of the zebrafish (Danio rerio, AB strain). A total of 8-10 pairs were used for each cross and a total of 200-250 eggs were generated on average per pair.
To assure exposure in the earliest stages of development, the eggs were quickly transferred (a minimum of 50 per condition) to another Petri dish with solutions of the compounds to be tested. […] Each experiment was performed in triplicate.
The studies were conducted in a total of 9 days post-fertilization, in which the treatment was renewed every day, thus conducting a semi-static assay.
The results at the end of the experiment allowed collecting the percentage of healthy larvae which reach the end of the experiment, defined as the number of live larvae and without symptoms of external physiopathological anomalies (morphological and/or behavioral), this being a parameter determining the biosafety of a substance under study and is complementary to the survival rates and to the LD50.
The anomalies recorded in the study are described below: • Intracranial thrombosis: a clot inside the blood vessel, in this case of any cerebral vessel. • Cardiac thrombosis: occurs in a cardiac vessel. • Cardiac edema (or hydrops): accumulation of fluid in the intercellular tissue space and also in the cavities of the organism. In the case of the heart, it causes the accumulation of fluid in the pericardial sac. • Malformation: a noticeable difference in the shape of the body or part of the body, or organ of the body (internal or external) compared with the average shape of the part in question.
The cardiac rhythm of the zebrafish embryos-larva was determined by means of visual analysis in stereomicroscopy, determining the heartbeat with the aid of a manual counter for a period of one minute.

A further data set in a line: in vitro. The conditions noted are these: PAMPA, pH 7.4.
A further data set concerns the target T1, HMGR enzyme (Homo sapiens, UniProt P04035).
T1 sequence (P04035 426-888 limits assumed): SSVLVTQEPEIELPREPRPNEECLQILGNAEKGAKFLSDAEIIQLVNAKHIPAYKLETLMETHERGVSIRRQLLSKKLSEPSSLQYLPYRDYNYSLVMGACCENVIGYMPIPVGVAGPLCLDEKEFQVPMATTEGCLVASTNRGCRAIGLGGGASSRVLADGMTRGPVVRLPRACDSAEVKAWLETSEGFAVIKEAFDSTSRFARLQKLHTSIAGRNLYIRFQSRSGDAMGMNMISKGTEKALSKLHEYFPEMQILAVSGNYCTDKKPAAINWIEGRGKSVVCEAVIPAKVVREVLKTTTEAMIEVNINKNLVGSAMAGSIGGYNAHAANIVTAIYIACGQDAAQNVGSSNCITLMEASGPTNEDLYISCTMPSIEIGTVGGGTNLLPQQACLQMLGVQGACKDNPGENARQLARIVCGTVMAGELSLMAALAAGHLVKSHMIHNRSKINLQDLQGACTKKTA
Nature of the data set: Inhibition of HMGR enzyme activity (NADPH absorbance 340 nm). Format: biochemical. The conditions noted are these: acid form, 37° C. On the procedure: Due to the nature of the compound, the degree of inhibition of the HMGR enzyme by compound NST0037 was determined since this enzyme is key in cellular cholesterol synthesis and in the physiological regulation of said synthesis. […] For the reaction, HMGR uses NADPH as a reducing agent and 3-hydroxy-3-methylglutaryl coenzyme A (HMGCoA) as a substrate, producing mevalonic acid, CoASH and NADP+. The reduction of the absorbance at which NADPH (340 nm) is absorbed is a direct measurement of the catalytic activity of HMGR and serves to calculate the inhibition percentages of different compounds. In order to take the HMGR inhibition, the assay was performed on a 96-well plate, with a total reaction volume of 200 μl. The reaction buffer (50 mM KH2PO4, 1 M KCl, 2 mg/ml Bovine Serum Albumin [BSA] and 5 mM DTT, at pH=7.3) was prepared at the time the reaction was conducted and was maintained at 37° C. […] The acid form of the compounds is used in all the cases.
The reduction of absorbance at 340 nm allows calculating the percentage of HMGR enzyme activity with respect to the control. The IC50 were determined by means of the Trimmed Spearman-Karber method (Version 1.5).

On to `CCC(CC)C(=O)O[C@H]1C[C@@H](C)C=C2C=C[C@H](C)[C@H](CC[C@@H]3C[C@@H](O)CC(=O)O3)[C@H]21` [NST0037, (1S,2S,6R,8S,8aR)-1,2,6,7,8,8a-hexahydro-3,7-dimethyl-8-[2-[(2R,4R)-tetrahydro-4-hydroxy-6-oxo-2H-pyran-2-yl]ethyl]-1-naphthalenyl-2-ethyl-butyrate], for which, in the data set on ApoB100 mice, the “FC and EC levels” value was “significant reduction of both FC and EC”; the HDL-c levels entry was “increase the HDL-c levels”; the “LDL-c levels vs simvastatin” value is recorded as “reduced to a greater extent”. Besides, the cholesterol fractions entry with ApoB100 mice (three times a week, female apoB100 mice) is on record as “reduced the different cholesterol fractions”. For the same molecule, the “percentage of larvae with malformations or anomalous appearance” value in the data set on zebrafish embryo (0.2 mg/L) is given as “did not show significant toxicological effects”. The “percentage of healthy larvae at the end of the experiment” value in the data set on zebrafish embryo (0.06 and 0.2 mg/L, 9 days) is listed as “more healthy larvae reaching the end of the experiment”. For the same molecule, the LD50 entry in the data set with zebrafish embryo (first days post-treatment (up to day 2)) is reported as “above the maximum dose evaluated”. In addition, the “survival rate of embryos-larvae” value in the data set with zebrafish embryo (high dose (2 mg/L, FIG. 24)) is reported as “caused the mortality of all the embryos of the assay”. The “reduction of the cardiac rhythm vs controls” value in the data set with zebrafish embryo (increasing doses up to 2 mg/L, 72 hours post-treatment) is “statistically significant only at the dose of 2 mg/L”. The “survival rate of embryos-larvae vs controls” value with zebrafish embryo (lower dose (FIG. 25: NST0037 0.2 mg/L)) is recorded as “did not cause a statistically significant reduction of the survival rate”. In addition, the Papp at 18 h, 100 μM in “in vitro” stood at 3.1 ×10⁻⁶ cm/s. Further, the “HMGR inhibition potency compared with atorvastatin” value on HMGR enzyme is recorded as “surprisingly close to that of more potent statin, atorvastatin”.

The term Papp denotes a coefficient for how fast a substance crosses the barrier. Lower therefore signals poor permeation.
